Results taken from PMC8851638 (ACS Omega, 2022).
≈ marks a conversion by molar mass, not a printed value. Where “and” joins values, the source holds several entries; their conditions need not be identical. Identical values can stand only once.

How the values were obtained:
K. pneumoniae (MDR00244) [1] = assay: Agar well-diffusion antimicrobial sensitivity assay; type: cell-based; settings: 100 mg/mL in DMSO, 50 μL per well, ± SD
E. coli (MDR00501) [2] = assay: as above; type: cell-based
B. subtilis (MDR00423) [3] = assay: as above; type: cell-based; settings: 100 mg/mL in DMSO, 50 μL per well, ± SD
[4] = test system: S. epidermidis (MDR00223); assay: as above; type: cell-based, Staphylococcus epidermidis
[5] = test system: C. albicans100 (MDR00100); assay: as above; type: cell-based, Candida albicans
S. aureus (MDR00231) [6] = assay: as above; type: cell-based, Staphylococcus aureus
A. baumannii (MDR00521) [7] = assay: as above; type: cell-based; settings: 100 mg/mL in DMSO, 50 μL per well, ± SD
[8] = test system: C. albicans200 (MDR00200); assay: as above; type: cell-based, Candida albicans
[9] = test system: C. albicans200 (MDR00200); assay: MIC and MFC by broth microdilution; type: cell-based, Candida albicans
B. subtilis [10] = assay: Checkerboard combination assay with Ciprofloxacin; type: cell-based
RBCs = assay: Hemolytic assay; type: cell-based; settings: human RBCs; compounds 1.0 mg/mL; Triton X-100 0.1% v/v; 37 °C, 35 min
S. aureus biofilm = assay: Staphylococcus biofilm mass reduction; type: cell-based; settings: at their MIC
C. albicans100 [11] = assay: Checkerboard combination assay with Ketoconazole; type: cell-based, Candida albicans
B. subtilis [12] = assay: Single-step resistance selection; type: cell-based; settings: 4 × MIC, 48 h
C. albicans200 [13] = assay: Single-step resistance selection; type: cell-based, Candida albicans; settings: 4 × MIC, 48 h
[14] = target: T1, dihydrofolate reductase (DHFR) (Homo sapiens, UniProt P00374); assay: DHFR inhibition; type: biochemical
T1 sequence (P00374 1-187): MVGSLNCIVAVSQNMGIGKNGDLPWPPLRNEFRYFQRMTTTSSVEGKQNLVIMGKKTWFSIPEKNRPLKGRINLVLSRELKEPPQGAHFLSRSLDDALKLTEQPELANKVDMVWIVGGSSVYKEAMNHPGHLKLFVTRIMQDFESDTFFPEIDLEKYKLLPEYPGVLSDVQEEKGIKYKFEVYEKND

S. epidermidis biofilm = assay: Staphylococcus biofilm mass reduction; type: cell-based; settings: at their MIC
S. aureus (MDR00231) [15] = assay: MIC and MBC by broth microdilution; type: cell-based, Staphylococcus aureus
[16] = test system: C. albicans100 (MDR00100); assay: MIC and MFC by broth microdilution; type: cell-based, Candida albicans
C. albicans100 [17] = assay: Single-step resistance selection; type: cell-based, Candida albicans; settings: 4 × MIC, 48 h
B. subtilis (MDR00423) [18] = assay: MIC and MBC by broth microdilution; type: cell-based
S. aureus [19] = assay: Single-step resistance selection; type: cell-based, Staphylococcus aureus; settings: 4 × MIC, 48 h
K. pneumoniae (MDR00244) [20] = assay: MIC and MBC by broth microdilution; type: cell-based; settings: ratio in parentheses
[21] = test system: clinical pathogenic isolates; assay: Single-step resistance selection, whole panel; type: cell-based; settings: 4 × MIC
S. epidermidis [22] = assay: Checkerboard combination assay with Ciprofloxacin; type: cell-based, Staphylococcus epidermidis
C. albicans200 [23] = assay: Checkerboard combination assay with Ketoconazole; type: cell-based, Candida albicans
A. baumannii (MDR00521) [24] = assay: MIC and MBC by broth microdilution; type: cell-based
[25] = test system: S. epidermidis (MDR00223); assay: MIC and MBC by broth microdilution; type: cell-based, Staphylococcus epidermidis
E. coli DNA gyrase = E. coli DNA gyrase (Escherichia coli, UniProt P0AES4+P0AES6); assay: DNA gyrase inhibition; type: biochemical
A. baumannii [26] = assay: Checkerboard combination assay with Ciprofloxacin; type: cell-based
K. pneumoniae [27] = assay: Single-step resistance selection; type: cell-based; settings: 4 × MIC, 48 h
E. coli [28] = assay: Checkerboard combination assay with Ciprofloxacin; type: cell-based
S. aureus [29] = assay: Checkerboard combination assay with Ciprofloxacin; type: cell-based, Staphylococcus aureus
[30] = In vitro cytotoxicity on normal cell line; type: cell-based, rat; settings: rat, H9C2 heart/myocardium cells
[31] = test system: H9C2: rat heart/myocardium; assay: In vitro cytotoxicity on normal cell line; type: cell-based
K. pneumoniae [32] = assay: Checkerboard combination assay with Ciprofloxacin; type: cell-based
[33] = In vitro cytotoxicity on normal cell line; type: cell-based, mouse; settings: mouse, BNL normal liver cells
[34] = test system: BNL: mouse normal liver cells; assay: In vitro cytotoxicity on normal cell line; type: cell-based
S. epidermidis [35] = assay: Single-step resistance selection; type: cell-based, Staphylococcus epidermidis; settings: 4 × MIC, 48 h
E. coli [36] = assay: Single-step resistance selection; type: cell-based; settings: 4 × MIC, 48 h
E. coli (MDR00501) [37] = assay: MIC and MBC by broth microdilution; type: cell-based
A. baumannii [38] = assay: Single-step resistance selection; type: cell-based; settings: 4 × MIC, 48 h
[39] = In vitro cytotoxicity on normal cell line; type: cell-based, green monkey; settings: green monkey, Vero kidney cells
[40] = test system: Vero: green monkey kidney; assay: In vitro cytotoxicity on normal cell line; type: cell-based
[41] = Candida albicans, read-out: Inhibition Zone (IZ)

Chain of E. coli DNA gyrase (P0AES4 whole entry, one chain of several): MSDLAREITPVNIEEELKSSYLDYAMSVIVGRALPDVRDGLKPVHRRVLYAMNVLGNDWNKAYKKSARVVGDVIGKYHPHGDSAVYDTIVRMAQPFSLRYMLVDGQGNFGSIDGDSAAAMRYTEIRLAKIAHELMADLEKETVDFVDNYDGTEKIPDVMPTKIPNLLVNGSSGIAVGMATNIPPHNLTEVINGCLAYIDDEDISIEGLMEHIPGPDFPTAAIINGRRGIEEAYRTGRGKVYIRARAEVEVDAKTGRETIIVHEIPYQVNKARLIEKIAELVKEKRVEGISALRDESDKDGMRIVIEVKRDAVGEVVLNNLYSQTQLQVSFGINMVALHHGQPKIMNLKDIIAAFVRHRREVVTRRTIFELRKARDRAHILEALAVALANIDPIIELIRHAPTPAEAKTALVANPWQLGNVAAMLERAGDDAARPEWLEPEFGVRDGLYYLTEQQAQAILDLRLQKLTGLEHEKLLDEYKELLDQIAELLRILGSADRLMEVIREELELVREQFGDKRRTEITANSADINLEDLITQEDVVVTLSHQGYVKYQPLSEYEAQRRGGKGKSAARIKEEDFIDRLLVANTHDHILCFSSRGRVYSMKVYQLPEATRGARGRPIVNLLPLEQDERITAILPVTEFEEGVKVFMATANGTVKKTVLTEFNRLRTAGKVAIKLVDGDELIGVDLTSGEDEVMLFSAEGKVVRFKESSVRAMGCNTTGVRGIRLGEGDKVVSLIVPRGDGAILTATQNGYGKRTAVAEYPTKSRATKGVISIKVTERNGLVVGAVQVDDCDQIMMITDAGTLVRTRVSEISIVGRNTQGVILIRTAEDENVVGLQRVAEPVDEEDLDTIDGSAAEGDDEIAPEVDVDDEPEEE

N#CC=c1[nH]c(=O)c(=Cc2cn(-c3ccccc3)nc2-c2ccccc2)s1 [Compound 3a, 2-(5-((1,3-Diphenyl-1H-pyrazol-4-yl)methylene)-4-oxothiazolidin-2-ylidene)acetonitrile]
Inhibition Zone (IZ) (K. pneumoniae (MDR00244) [1]): -ve | Inhibition Zone (IZ) (E. coli (MDR00501) [2]; E. coli, 100 mg/mL in DMSO, 50 μL per well, ± SD): -ve | Inhibition Zone (IZ) (B. subtilis (MDR00423) [3]): -ve | Inhibition Zone (IZ) ([4]; S. epidermidis, 100 mg/mL in DMSO, 50 μL per well, ± SD): -ve | Inhibition Zone (IZ) ([5]; C. albicans100, 100 mg/mL in DMSO, 50 μL per well, ± SD): -ve | Inhibition Zone (IZ) (S. aureus (MDR00231) [6]; S. aureus, 100 mg/mL in DMSO, 50 μL per well, ± SD): -ve | Inhibition Zone (IZ) (A. baumannii (MDR00521) [7]): -ve | Inhibition Zone (IZ) ([8]; C. albicans200, 100 mg/mL in DMSO, 50 μL per well, ± SD): -ve

N#CC(=Cc1ccccc1O)C1=NC(=O)C(=Cc2cn(-c3ccccc3)nc2-c2ccccc2)S1 [Compound 5a, 3-(2-Hydroxyphenyl)-2-(5-((1,3-diphenyl-1H-pyrazol-4-yl)methylene)-4-oxo-4,5-dihydro-thiazol-2-yl)acrylonitrile]
MIC (mean ± SEM) ([9]; C. albicans200, broth microdilution): 0.24 ± 0.4 mg/L (≈ 0.506 µM) | MFC/MIC ([9]; C. albicans200, ratio in parentheses): 1 | MIC ([9]; Candida albicans, read-out: MIC (mean ± SEM), C. albicans200, broth microdilution): 0.24 mg/L (≈ 0.506 µM) | combination effect (B. subtilis [10]): S (S: synergism) | fractional inhibitory concentration index (FICI) (B. subtilis [10]): 0.25 | zone of inhibition at 100000 µg/mL (E. coli (MDR00501) [2]; Escherichia coli, read-out: Inhibition Zone (IZ)): 28 ± 0.14 mm | %lysis of RBCs (RBCs): 9.67% and 9.67 ± 0.31% | reduction of biofilm formation (S. aureus biofilm): 89.1% | combination effect (C. albicans100 [11]): S (S: synergism) | fractional inhibitory concentration index (FICI) (C. albicans100 [11]): 0.25 | Single-step resistance frequency (mutation frequency) (B. subtilis [12]): 2.93 × 10^–7 | Single-step resistance frequency (mutation frequency) (C. albicans200 [13]): 4.40 × 10^–7 | IC50 [14]: 1.11 ± 0.15 µM | reduction of biofilm formation (S. epidermidis biofilm): 79.5% | MBC/MIC (S. aureus (MDR00231) [15]; S. aureus, ratio in parentheses): 1 | MIC (S. aureus (MDR00231) [15]; Staphylococcus aureus, read-out: MIC (mean ± SEM), S. aureus, broth microdilution): 0.48 ± 0.1 mg/L (≈ 1.01 µM) | MIC (mean ± SEM) ([16]; C. albicans100, broth microdilution): 0.43 ± 0.5 mg/L (≈ 0.906 µM) | MFC/MIC ([16]; C. albicans100, ratio in parentheses): 0.5 | MIC ([16]; Candida albicans, read-out: MIC (mean ± SEM), C. albicans100, broth microdilution): 0.43 mg/L (≈ 0.906 µM) | Single-step resistance frequency (mutation frequency) (C. albicans100 [17]): 2.10 × 10^–8 | MBC/MIC (B. subtilis (MDR00423) [18]; B. subtilis, ratio in parentheses): 1 | MIC (B. subtilis (MDR00423) [18]; Bacillus subtilis, read-out: MIC (mean ± SEM), B. subtilis, broth microdilution): 0.49 ± 0.2 mg/L (≈ 1.03 µM) | Single-step resistance frequency (mutation frequency) (S. aureus [19]): 3.22 × 10^–7 | MBC/MIC (K. pneumoniae (MDR00244) [20]): 1 | mutation frequency, range over panel [21]: 2.21 × 10^–7 to 2.71 × 10^–8 | combination effect (S. epidermidis [22]): S (S: synergism) | fractional inhibitory concentration index (FICI) (S. epidermidis [22]): 0.5 | combination effect (C. albicans200 [23]): S (S: synergism) | fractional inhibitory concentration index (FICI) (C. albicans200 [23]): 0.5 | zone of inhibition at 100000 µg/mL ([4]; Staphylococcus epidermidis, read-out: Inhibition Zone (IZ)): 27 ± 0.24 mm | MIC (mean ± SEM) (A. baumannii (MDR00521) [24]; broth microdilution): 0.48 ± 0.5 mg/L (≈ 1.01 µM) | MBC/MIC (A. baumannii (MDR00521) [24]; ratio in parentheses): 0.5 | MBC/MIC ([25]; S. epidermidis, ratio in parentheses): 0.5 | MIC ([25]; Staphylococcus epidermidis, read-out: MIC (mean ± SEM), S. epidermidis, broth microdilution): 0.49 ± 0.4 mg/L (≈ 1.03 µM) | IC50 (E. coli DNA gyrase): 22.1 ± 0.3 µM | combination effect (A. baumannii [26]): S (S: synergism) | fractional inhibitory concentration index (FICI) (A. baumannii [26]): 0.5 | Single-step resistance frequency (mutation frequency) (K. pneumoniae [27]): 1.90 × 10^–8 | combination effect (E. coli [28]): S (S: synergism) | fractional inhibitory concentration index (FICI) (E. coli [28]): 0.5 | combination effect (S. aureus [29]): S (S: synergism) | fractional inhibitory concentration index (FICI) (S. aureus [29]): 0.5 | IC50 at 72 h [30]: 99.2 ± 2.29 µM | Selectivity index against DHFR ([31]; IC50 of H9C2 / IC50 of DHFR): 89.37 | Selectivity index against DNA gyrase ([31]; IC50 of H9C2 / IC50 of DNA gyrase): 4.48 | zone of inhibition at 100000 µg/mL [5, 41]: 28 ± 0.4 mm | combination effect (K. pneumoniae [32]): S (S: synergism) | fractional inhibitory concentration index (FICI) (K. pneumoniae [32]): 0.25 | zone of inhibition at 100000 µg/mL (S. aureus (MDR00231) [6]; Staphylococcus aureus, read-out: Inhibition Zone (IZ)): 29 ± 0.22 mm | IC50 at 72 h [33]: 103 ± 1.44 µM | Selectivity index against DHFR ([34]; IC50 of BNL / IC50 of DHFR): 93.23 | Selectivity index against DNA gyrase ([34]; IC50 of BNL / IC50 of DNA gyrase): 4.67 | Single-step resistance frequency (mutation frequency) (S. epidermidis [35]): 2.71 × 10^–8 | Single-step resistance frequency (mutation frequency) (E. coli [36]): 2.21 × 10^–7 | MIC (mean ± SEM) (E. coli (MDR00501) [37]; E. coli, broth microdilution): 0.46 ± 0.3 mg/L (≈ 0.969 µM) | MBC/MIC (E. coli (MDR00501) [37]; E. coli, ratio in parentheses): 1 | MIC (E. coli (MDR00501) [37]; Escherichia coli, read-out: MIC (mean ± SEM), E. coli, broth microdilution): 0.46 mg/L (≈ 0.969 µM) | zone of inhibition at 100000 µg/mL [8, 41]: 30 ± 0.6 mm | Single-step resistance frequency (mutation frequency) (A. baumannii [38]): 1.80 × 10^–8 | IC50 at 72 h [39]: 80.2 ± 1.79 µM | Selectivity index against DHFR ([40]; IC50 of Vero / IC50 of DHFR): 72.28 | Selectivity index against DNA gyrase ([40]; IC50 of Vero / IC50 of DNA gyrase): 3.62
